Source: patent publication US9937235B2, “Lipidated peptides as anti-obesity agents” (USTAV ORGANICKE CHEMIE A BIOCHEMIE AKADEMIE VED CR, V.V.I, priority 2012, dated 2018)
Where a SMILES comes first, the peptide text is derived from it. Where no end group is shown, it is not given here. [ ]: non-standard residue; d: D form. The star is where a group is joined. Phe(F5) = N[C@@H](Cc1c(F)c(F)c(F)c(F)c1F)C(=O)O; Palmitoyl = CCCCCCCCCCCCCCCC(=O)*; Lauroyl = CCCCCCCCCCCC(=O)*; Decanoyl = CCCCCCCCCC(=O)*; Nle = CCCC[C@H](N)C(=O)O

Columns and labels:
[1] = biological target: T1, human PrRP receptor, GPR10 (Homo sapiens, UniProt P49683); assay: Competitive binding to CHO cells with transfected human GPR10; settings: CHO cells with transfected human GPR10, human ^125I—PrRP31
T1 construct: host or cells: CHO cells
T1 sequence (P49683 1-370): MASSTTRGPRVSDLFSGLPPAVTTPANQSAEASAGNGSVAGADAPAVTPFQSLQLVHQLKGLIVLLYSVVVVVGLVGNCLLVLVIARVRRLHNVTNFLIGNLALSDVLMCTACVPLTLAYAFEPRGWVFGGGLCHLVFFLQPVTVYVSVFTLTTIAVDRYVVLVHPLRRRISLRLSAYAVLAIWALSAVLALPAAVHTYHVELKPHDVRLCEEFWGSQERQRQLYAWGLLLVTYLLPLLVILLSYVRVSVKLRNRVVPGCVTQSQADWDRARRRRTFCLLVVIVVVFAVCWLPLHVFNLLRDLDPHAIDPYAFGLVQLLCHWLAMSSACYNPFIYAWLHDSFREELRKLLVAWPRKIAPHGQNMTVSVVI
Description: Competitive binding experiments were performed according to Motulsky and Neubig (Motulsky, A., et al., “Analyzing radioligand binding data,” Curr Protoc Neurosci, Chapter 7, Unit 7.5, 2002).
CHO cells with transfected human PrRP receptor, GPR10 (Perkin Elmer, USA) were grown on 24-well plates coated with polyethyleneimine. The cells were grown to the optimal density of 40-80 thousand cells per well. The following agents were used for the experiment: binding buffer (25 mmol·l^−1 Tris, pH 7.4; 118 mmol·l^−1 NaCl, 10 mmol·l^−1 MgCl2, 1 mmol·l^−1 CaCl2, 5.5 mmol·l^−1 glucose, 0.5 mg/ml BSA), unlabelled analogs of PrRP of final concentration within 10^−11 to 10^−4 mol·l^−1, and human ^125I—PrRP31 of final concentration of 5×10^−11 mol·l^−1.
Plates were incubated for 60 minutes at room temperature. After incubation, the cells were solubilized in 0.1 mol/l solution of NaOH and the radioactivity bound to the cells was counted using a γ-counter. The experiments were performed in duplicate and repeated at least three times.
For evaluation of competitive binding experiments, the program Graph Pad Prism Software (San Diego, Calif., USA) was used. A method of nonlinear regression assuming one-site binding was used.

fasted C57BL/6 mice [2] = assay: Food intake in fasted mice after SC administration; format: in vivo, mouse; settings: fasted C57BL/6 mice, 5 mg/kg SC, 45 min
How it was run: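 Male C57BL/6 mice, food-deprived 17 h, received saline, PrRP or lipidated analogs either SC at 1-10 mg/kg or ICV into the third ventricle at 4 nmol/mouse.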

[3] = biological target: T2, rat PrRP receptor (GPR10) in RC-4B/C cells (Rattus norvegicus, UniProt Q64121); assay: Competitive binding to rat pituitary RC-4B/C cells; settings: rat RC-4B/C cells, Table 5; read-out: C-4B/C cells ^25I-rat PrRP31 Ki
T2 construct: host or cells: RC-4B/C rat pituitary cell line
T2 sequence (Q64121 1-370): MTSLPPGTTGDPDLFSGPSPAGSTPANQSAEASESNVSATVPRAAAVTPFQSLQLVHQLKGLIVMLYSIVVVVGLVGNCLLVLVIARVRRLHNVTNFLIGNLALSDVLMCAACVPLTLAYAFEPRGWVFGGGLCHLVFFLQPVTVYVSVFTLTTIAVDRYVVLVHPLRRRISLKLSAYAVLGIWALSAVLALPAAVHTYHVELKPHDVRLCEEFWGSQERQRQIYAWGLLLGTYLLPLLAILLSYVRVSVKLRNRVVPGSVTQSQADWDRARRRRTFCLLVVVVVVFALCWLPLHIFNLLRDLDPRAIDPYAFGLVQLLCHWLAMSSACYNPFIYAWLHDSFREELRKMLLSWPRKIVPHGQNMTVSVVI

fasted C57BL/6 mice [4] = settings: central administration, Maixnerová et al., 2011; cited from earlier work

| Ki [1] [nM] | Ki [3] [nM] | Compound | Food intake in mice (5 mg/kg SC) % saline-treated group (45 min) (fasted C57BL/6 mice [2]) [%] | anorexigenic activity in mice (fasted C57BL/6 mice [4]) |
| --- | --- | --- | --- | --- |
| 1.92 ± 0.53 | 0.51 ± 0.08 | CCCCCCCCCCCCCCCC(=O)N[C@@H](CO)C(=O)N[C@@H](CCCNC(=N)N)C(=O)N[C@@H](C)C(=O)N[C@@H](Cc1c[nH]cn1)C(=O)N[C@@H](CCC(N)=O)C(=O)N[C@@H](Cc1c[nH]cn1)C(=O)N[C@@H](CO)C(=O)N[C@@H](CCCC)C(=O)N[C@@H](CCC(=O)O)C(=O)N[C@H](C(=O)N[C@@H](CCCNC(=N)N)C(=O)N[C@H](C(=O)N1CCC[C@H]1C(=O)N[C@@H](CC(=O)O)C(=O)N[C@H](C(=O)N[C@@H](CC(N)=O)C(=O)N1CCC[C@H]1C(=O)N[C@@H](C)C(=O)N[C@@H](Cc1c[nH]c2ccccc12)C(=O)N[C@@H](Cc1ccc(O)cc1)C(=O)N[C@H](C(=O)NCC(=O)N[C@@H](CCCNC(=N)N)C(=O)NCC(=O)N[C@H](C(=O)N[C@@H](CCCNC(=N)N)C(=O)N1CCC[C@H]1C(=O)N[C@H](C(=O)NCC(=O)N[C@@H](CCCNC(=N)N)C(=O)N[C@@H](Cc1c(F)c(F)c(F)c(F)c1F)C(N)=O)C(C)C)[C@@H](C)CC)[C@@H](C)O)[C@@H](C)CC)[C@@H](C)O)[C@@H](C)O [Analog 33] (Palmitoyl-SRAHQHS[Nle]ETRTPDINPAWYTGRGIRPVGR[Phe(F5)]-NH2) | 41 |  |
|  |  | PrRP13: tridecapeptide PrRP13 (containing amino acids 18 to 31 of PrRP31) (AWYASRGIRPVGRF; ends and bridges not checked; UniProt P81277 40-53, looked up, fragment) |  | not sufficient for maintaining the anorexigenic activity |
| 2.41 ± 0.26 |  | CCCCCCCCCCCC(=O)N[C@H](C(=O)N1CCC[C@H]1C(=O)N[C@@H](CC(=O)O)C(=O)N[C@H](C(=O)N[C@@H](CC(N)=O)C(=O)N1CCC[C@H]1C(=O)N[C@@H](C)C(=O)N[C@@H](Cc1c[nH]c2ccccc12)C(=O)N[C@@H](Cc1ccc(O)cc1)C(=O)N[C@@H](C)C(=O)N[C@@H](CO)C(=O)N[C@@H](CCCNC(=N)N)C(=O)NCC(=O)N[C@H](C(=O)N[C@@H](CCCNC(=N)N)C(=O)N1CCC[C@H]1C(=O)N[C@H](C(=O)NCC(=O)N[C@@H](CCCNC(=N)N)C(=O)N[C@@H](Cc1ccccc1)C(N)=O)C(C)C)[C@@H](C)CC)[C@@H](C)CC)[C@@H](C)O [Analog 54] (Lauroyl-TPDINPAWYASRGIRPVGRF-NH2) | 85 |  |
| 2.41 ± 0.26 |  | CCCCCCCCCC(=O)N[C@H](C(=O)N1CCC[C@H]1C(=O)N[C@@H](CC(=O)O)C(=O)N[C@H](C(=O)N[C@@H](CC(N)=O)C(=O)N1CCC[C@H]1C(=O)N[C@@H](C)C(=O)N[C@@H](Cc1c[nH]c2ccccc12)C(=O)N[C@@H](Cc1ccc(O)cc1)C(=O)N[C@@H](C)C(=O)N[C@@H](CO)C(=O)N[C@@H](CCCNC(=N)N)C(=O)NCC(=O)N[C@H](C(=O)N[C@@H](CCCNC(=N)N)C(=O)N1CCC[C@H]1C(=O)N[C@H](C(=O)NCC(=O)N[C@@H](CCCNC(=N)N)C(=O)N[C@@H](Cc1ccccc1)C(N)=O)C(C)C)[C@@H](C)CC)[C@@H](C)CC)[C@@H](C)O [Analog 53] (Decanoyl-TPDINPAWYASRGIRPVGRF-NH2) | 100 |  |
